# Results taken from patent publication US20220273799A1, “DRUG DELIVERY COMPOSITION, METHOD FORMING THE SAME AND METHOD FOR TREATING INNER EAR DISORDERS” (National Taiwan University of Science and Technology, priority 2021, published 2022).
# Assay: DEX concentration in cochlear perilymph after intratympanic injection
# Format: in vivo, guinea pig
# Protocol: (1) Preparation of guinea pig models: The guinea pig model used in this example is the pigmented guinea pig model. The surgical anesthesia is given by intramuscular injection of ketamine HCl (40 mg per kg guinea pig body weight). The remaining injections are muscle relaxant Rompun® (Xylazine)(10 mg/kg guinea pig body weight), prophylactic antibiotic chloramphenicol sodium succinate (30 mg/kg guinea pig body weight), and local anesthetic Lidocaine HCl (1%, 0.5 mL).
# (2) Preparation for the Guinea pig surgery and the experiment: The surgery is carried out by intratympanic injection. The guinea pig is anesthetized and operated under a dissecting surgical microscope after confirmation. A 22G needle is used to puncture the eardrum, and 200 μL of the temperature-sensitive microbubbles drug (DEX) hydrogel of the present disclosure is applied into the middle ear cavity. The experiments are performed in the ultrasound microbubble treatment group (USM), round window soaking group (RWS), and the group treated with DEX only without MBs (DEX only without MBs). The groups are as follows: USM group is injected with the temperature-sensitive microbubbles drug hydrogel at 3W energy for 1 minute. […] The concentrations of DEX are measured in the cochlear perilymph of guinea pigs on day 1 and day 7 after injection.
structure (smiles),measurement,setting,value
"C[C@@H]1C[C@H]2[C@@H]3CCC4=CC(=O)C=C[C@]4(C)[C@@]3(F)[C@@H](O)C[C@]2(C)[C@@]1(O)C(=O)CO [DEX only without MBs, dexamethasone]",DEX concentration in cochlear perilymph,"day 1 after injection, DEX only without MBs group",about 17.38±2.51 μg/mL
same,DEX concentration in cochlear perilymph,"day 7 after injection, DEX only group",< 3 ng/mL
